Results published in article PMC10730852 (Communications Biology, 2023).

Legend:
[1] = tested on: Cph; design: method as in Previous kinetic studies; settings: ATP as a phosphate donor; ref Previous kinetic studies; read-out: Km value of Cph for CMN IIA; cited from earlier work
[2] = tested on: Cph; assay: Coupled enzyme assay and kinetics of Cph; assay type: biochemical, Saccharothrix mutabilis subsp. capreolus; settings: for absorbance at 340 nm, Average of triplicate: substrate + ATP
Protocol: The phosphorylation reaction was measured by a coupled enzyme assay as following. […] The reactions were mixed well in a final volume of 200 μL in 96-well plates. The Cph001 activity was assayed by determining the oxidation of NADH at 340 nm. The reaction buffer and enzyme concentration of the Cph reaction was followed by previous study. The 340 nm absorbance changes were detected at 30 °C for every 1 min at a time in 15 min on an EPOCH Microplate Reader (BioTek). All reactions were carried out in triplicate.

[3] = tested on: Cph001^D189N; assay: Coupled enzyme assay of Cph001 variant; assay type: biochemical, Streptosporangium roseum; settings: for absorbance at 340 nm, Average of triplicate: 2 mM substrate + ATP
Protocol: (§1) The phosphorylation reaction was measured by a coupled enzyme assay as following. The reaction 1, performed by 0.77 μM Cph001 with 2 mM antibiotic substrates (CMN IIA, CMN IIB, VIO, Kan, or Ery), was coupled to the reaction 2 and 3 in the presence of 4 U PK (pyruvate kinase from rabbit muscle, Merck), 4 U LDH (lactate dehydrogenase from rabbit muscle, Merck), 2 mM ATP or GTP, 2 mM PEP (phosphoenolpyruvate), 0.5 mM NADH, 40 mM KCl and 5 mM MgCl2 in a reaction buffer containing 400 mM NaCl and 20 mM Tris buffer at pH 8.0. The reactions were mixed well in a final volume of 200 μL in 96-well plates. The Cph001 activity was assayed by determining the oxidation of NADH at 340 nm. The reaction buffer and enzyme concentration of the Cph reaction was followed by previous study. The 340 nm absorbance changes were detected at 30 °C for every 1 min at a time in 15 min on an EPOCH Microplate Reader (BioTek). All reactions were carried out in triplicate.

[4] = tested on: Cph001^D189A; assay: Coupled enzyme assay of Cph001 variant; assay type: biochemical, Streptosporangium roseum; settings: for absorbance at 340 nm, Average of triplicate: 2 mM substrate + ATP
Protocol: as §1

[5] = target: T1, Cph001 (Streptosporangium roseum, UniProt D2B3F1); assay: Isothermal titration calorimetry (ITC) analysis of Cph001; assay type: binding
T1 sequence (D2B3F1 1-286): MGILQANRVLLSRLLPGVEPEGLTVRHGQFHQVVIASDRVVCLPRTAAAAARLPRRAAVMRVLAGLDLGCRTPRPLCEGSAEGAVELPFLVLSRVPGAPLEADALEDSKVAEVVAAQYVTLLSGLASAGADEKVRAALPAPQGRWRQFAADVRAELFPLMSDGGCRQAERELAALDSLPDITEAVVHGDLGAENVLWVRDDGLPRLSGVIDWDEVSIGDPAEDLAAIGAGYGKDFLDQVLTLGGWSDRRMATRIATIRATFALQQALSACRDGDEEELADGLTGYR
Source text: The integrated heat areas constitute a differential binding curve that was fitted with a standard single-site binding model by Origin 7.

[6] = tested on: E. coli/cph003; assay: Disk diffusion assay; assay type: cell-based, E. coli BL21 Rosetta (DE3)
Protocol: (§2) The E. coli BL21 Rosetta (DE3) strains containing pET22b, and its carrying cph, cph001, cph002, cph003, aph(3′)-Ia, and mphB plasmids were cultured overnight. The cells, respectively, were then diluted to 0.1 OD600 in molten LB agar with 100 μg/mL ampicillin and 500 μM IPTG for the disk diffusion assay. The cells with ampicillin and IPTG were mixed well with molten LB agar and then poured into 10 cm diameter Petri dishes. The 7 mm disks were placed onto the LB agar and gently loaded with varying quantities of CMN IIA, CMN IIB, VIO, Kan, and Ery, ranging from 0 to 200 μg. The Petri dishes were placed in the incubator at 37 °C and the inhibition zones were observed after 24 hr.

[7] = tested on: E. coli/cph002; assay: Disk diffusion assay; assay type: cell-based, E. coli BL21 Rosetta (DE3)
Protocol: as §2

[8] = tested on: E. coli/cph001; assay: Disk diffusion assay; assay type: cell-based, E. coli BL21 Rosetta (DE3)
Protocol: as §2

[9] = tested on: E. coli/cph; assay: Disk diffusion assay; assay type: cell-based, E. coli BL21 Rosetta (DE3)
Protocol: as §2

[10] = Escherichia coli, 24 h, read-out: inhibition zones

N=C1NCCC([C@@H]2NC(=O)/C(=C/NC(N)=O)NC(=O)[C@H](CNC(=O)C[C@@H](N)CCCN)NC(=O)[C@H](CO)NC(=O)[C@@H](N)CNC2=O)N1 (stereo in doubt) [CMN IIA]
Km [1]: 460 µM
phosphorylation by Cph in couple enzyme assay ([2]; CMN IIA and ATP, absorbance at 340 nm): decrease in absorbance at 340 nm
absorbance at 340 nm, Average of triplicate ([2]; time 00:00:00): 1.495
absorbance at 340 nm, Average of triplicate ([2]; time 00:01:00): 1.379
absorbance at 340 nm, Average of triplicate ([2]; time 00:02:00): 1.219
absorbance at 340 nm, Average of triplicate ([2]; time 00:03:00): 1.045
absorbance at 340 nm, Average of triplicate ([2]; time 00:04:00): 0.85
absorbance at 340 nm, Average of triplicate ([2]; time 00:05:00): 0.6453
absorbance at 340 nm, Average of triplicate ([2]; time 00:06:00): 0.4483
absorbance at 340 nm, Average of triplicate ([2]; time 00:07:00): 0.303
absorbance at 340 nm, Average of triplicate ([2]; time 00:08:00): 0.2213
absorbance at 340 nm, Average of triplicate ([2]; time 00:09:00): 0.1687
absorbance at 340 nm, Average of triplicate ([2]; time 00:10:00): 0.136
absorbance at 340 nm, Average of triplicate ([2]; time 00:11:00): 0.1227
absorbance at 340 nm, Average of triplicate ([2]; time 00:12:00): 0.1173
absorbance at 340 nm, Average of triplicate ([2]; time 00:13:00): 0.1173
absorbance at 340 nm, Average of triplicate ([2]; time 00:14:00): 0.1173
absorbance at 340 nm, Average of triplicate ([2]; time 00:15:00): 0.1177
phosphotransferase activity of variant ([3]; CMN IIA + ATP): complete loss of phosphotransferase activity
absorbance at 340 nm, Average of triplicate ([3]; time 00:00:00): 1.495
absorbance at 340 nm, Average of triplicate ([3]; time 00:01:00): 1.553
absorbance at 340 nm, Average of triplicate ([3]; time 00:02:00): 1.591
absorbance at 340 nm, Average of triplicate ([3]; time 00:03:00): 1.622
absorbance at 340 nm, Average of triplicate ([3]; time 00:04:00): 1.655
absorbance at 340 nm, Average of triplicate ([3]; time 00:05:00): 1.685
absorbance at 340 nm, Average of triplicate ([3]; time 00:06:00): 1.709
absorbance at 340 nm, Average of triplicate ([3]; time 00:07:00): 1.733
absorbance at 340 nm, Average of triplicate ([3]; time 00:08:00): 1.755
absorbance at 340 nm, Average of triplicate ([3]; time 00:09:00): 1.775
absorbance at 340 nm, Average of triplicate ([3]; time 00:10:00): 1.791
absorbance at 340 nm, Average of triplicate ([3]; time 00:11:00): 1.804
absorbance at 340 nm, Average of triplicate ([3]; time 00:12:00): 1.814
absorbance at 340 nm, Average of triplicate ([3]; time 00:13:00): 1.823
absorbance at 340 nm, Average of triplicate ([3]; time 00:14:00): 1.83
absorbance at 340 nm, Average of triplicate ([3]; time 00:15:00): 1.791
phosphotransferase activity of variant ([4]; CMN IIA + ATP): complete loss of phosphotransferase activity
absorbance at 340 nm, Average of triplicate ([4]; time 00:00:00): 1.495
absorbance at 340 nm, Average of triplicate ([4]; time 00:01:00): 1.482
absorbance at 340 nm, Average of triplicate ([4]; time 00:02:00): 1.504
absorbance at 340 nm, Average of triplicate ([4]; time 00:03:00): 1.549
absorbance at 340 nm, Average of triplicate ([4]; time 00:04:00): 1.574
absorbance at 340 nm, Average of triplicate ([4]; time 00:05:00): 1.588
absorbance at 340 nm, Average of triplicate ([4]; time 00:06:00): 1.596
absorbance at 340 nm, Average of triplicate ([4]; time 00:07:00): 1.602
absorbance at 340 nm, Average of triplicate ([4]; time 00:08:00): 1.612
absorbance at 340 nm, Average of triplicate ([4]; time 00:09:00): 1.625
absorbance at 340 nm, Average of triplicate ([4]; time 00:10:00): 1.641
absorbance at 340 nm, Average of triplicate ([4]; time 00:11:00): 1.654
absorbance at 340 nm, Average of triplicate ([4]; time 00:12:00): 1.662
absorbance at 340 nm, Average of triplicate ([4]; time 00:13:00): 1.67
absorbance at 340 nm, Average of triplicate ([4]; time 00:14:00): 1.682
absorbance at 340 nm, Average of triplicate ([4]; time 00:15:00): 1.69
Kd [5]: 1.24 ± 0.08 µM
resistance in disk diffusion assay ([6]; E. coli harboring cph003): becomes resistant
zone of inhibition at 12.5 µg/disc [6, 10]: 13 mm
zone of inhibition at 50 µg/disc [6, 10]: 16 mm
zone of inhibition at 100 µg/disc [6, 10]: 20 mm
zone of inhibition at 200 µg/disc [6, 10]: 22 mm
resistance in disk diffusion assay ([7]; E. coli harboring cph002): becomes resistant
zone of inhibition at 12.5 µg/disc [7, 10]: 14 mm
zone of inhibition at 50 µg/disc [7, 10]: 17 mm
zone of inhibition at 100 µg/disc [7, 10]: 19.5 mm
zone of inhibition at 200 µg/disc [7, 10]: 23 mm
resistance in disk diffusion assay ([8]; E. coli harboring cph001): becomes resistant
zone of inhibition at 12.5 µg/disc [8, 10]: 9.5 mm
zone of inhibition at 50 µg/disc [8, 10]: 13 mm
zone of inhibition at 100 µg/disc [8, 10]: 15 mm
zone of inhibition at 200 µg/disc [8, 10]: 18 mm
resistance in disk diffusion assay ([9]; E. coli harboring cph): becomes resistant
zone of inhibition at 50 µg/disc [9, 10]: 11 mm
zone of inhibition at 100 µg/disc [9, 10]: 13 mm
zone of inhibition at 200 µg/disc [9, 10]: 15.5 mm
